Source: patent publication US4880809A, “1,4-disubstituted piperazines (or homopiperazines) as platelet-activating factor antagonists” (Takeda Chemical Industries, Ltd., priority 1987, dated 1989)
Where a name gives a salt, the structure may show the parent alone.

How the values were obtained:
[1] = test system: PAF-Induced Platelet Aggregation; assay: Inhibitory Action on PAF-Induced Platelet Aggregation; assay type: cell-based, New Zealand white male rabbits; settings: Oryctolagus cuniculus, Drug Concentration: 3 × 10^-5 M, rabbit PRP
Method: Blood was collected from the hearts of conscious New Zealand white male rabbits weighing 2 to 3 kg using citric acid as an anticoagulant (one volume part of 3.15% citric acid per 9 volume parts of the whole blood). The blood was subjected to a centrifuge at 800 rpm for ten minutes to obtain platelet rich plasma (PRP). The remaining blood after collecting the PRP was subjected to a centrifuge at 3000 rpm for ten minutes to obtain platelet poor plasma (PPP). PRP was diluted with PPP, and the number of platelets was adjusted to 500,000/μl. Platelet aggregation was examined by means of turbidimetry [Born, Nature, 194, 927-929 (1962)] with 8 channel aggregometer (NBS HEMA TRACER 6 Nikoh, Bioscience, Japan). More concretely, PRP (250 μl) was kept warm (37° C.) for three minutes in a silicon-processed cuvette, to which was added a test sample (25 μl) dissolved in a physiological saline or in 10mM dimethylsulfoxide followed by dilution with a physiological saline. Two minutes later, PAF (25 μl, 3×10^-9 -1×10^-8 M), dissolved in a physiological saline, was added and then the maximum aggregation rate was determined. As the control, physiological saline without test sample was added to the cuvette, and the inhibitory rate thereon was determined.

PAF-Induced Hypotension = assay: Inhibitory Action on PAF-Induced Hypotension; assay type: in vivo, SD (Jcl) male rats; settings: po, rat; for inhibition in vivo at 30 mg/kg: 30 mg/kg p.o.; for inhibition in vivo at 10 mg/kg: 10 mg/kg p.o.; for inhibition in vivo at 3 mg/kg: 3 mg/kg p.o.
Method: SD (Jcl) male rats of 6 to 8 week old were subjected to the experiment. After fasting overnight, the rats were cannulated into the femoral artery and vein under anesthesia with pentobarbital. A transducer (MPU-0.5-290O-III, TOYO BALDWIN, Japan) was connected with the artery cannula, and blood pressure was continuously measured. […] The rate of inhibition of lowering of blood pressure after administration of the test samples against the control was evaluated.

`COc1cc(CN2CCN(C(=O)C3=Cc4ccc(OCc5ccccc5)cc4CC3)CC2)cc(OC)c1OC` [Example 32, 1-(7-benzyloxy-1,2-dihydro-3-naphthoyl)-4-(3,4,5-trimethoxybenzyl)piperazine hydrochloride] was tested, and the inhibition at 30 µM [1] was 100%.
`COc1cc2c(cc1OC)CCCCC(C(=O)N1CCN(Cc3cc(OC)c(OC)c(OC)c3)CC1)=C2` [Example 84, 1-(2,3-dimethoxy-5,6,7,8-tetrahydrobenzocycloocten-9-ylcarbonyl)-1-(3,4,5-trimethoxybenzyl)piperazine hydrochloride] gave an inhibition at 30 µM [1] of 100%, an inhibition in vivo at 30 mg/kg (PAF-Induced Hypotension; after 1 hr) of 100% and an inhibition in vivo at 30 mg/kg (PAF-Induced Hypotension; after 2 hrs) of 100%. The inhibition in vivo at 30 mg/kg (PAF-Induced Hypotension; after 4 hrs) was 73%.
`COc1ccc2c(c1)CCC(C(=O)N1CCN(Cc3cc(OC)c(OC)c(OC)c3)CC1)=C2` [Example 1, 1-(7-methoxy-1,2-dihydro-3-naphthoyl)-4-(3,4,5-trimethoxybenzyl)piperazinehydrochloride] gave an inhibition at 30 µM [1] of 100%.
In the case of `COc1cc2c(cc1OC)CC(C(=O)N1CCN(C(=O)c3cc(OC)c(OC)c(OC)c3)CC1)CCC2` (centres unmarked) [Example 86, 1-(2,3-dimethoxy-5,6,7,8-tetrahydrobenzocyclohepten-6-ylcarbonyl)-4-(3,4,5-trimethoxy-benzoyl)piperazine], the inhibition in vivo at 10 mg/kg (PAF-Induced Hypotension; after 1 hr) is reported as 90%, the inhibition in vivo at 10 mg/kg (PAF-Induced Hypotension; after 2 hrs) is reported as 92% and the inhibition in vivo at 10 mg/kg (PAF-Induced Hypotension; after 4 hrs) is reported as 92%. It also gave an inhibition in vivo at 30 mg/kg (PAF-Induced Hypotension; after 1 hr) of 100%, an inhibition in vivo at 30 mg/kg (PAF-Induced Hypotension; after 2 hrs) of 100% and an inhibition in vivo at 30 mg/kg (PAF-Induced Hypotension; after 4 hrs) of 100%.
Work on `COc1cc(CN2CCN(C(=O)c3ccc4c(c3)C(=O)c3ccccc3-4)CC2)cc(OC)c1OC` [Example 38, 1-(9-oxo-2-fluorenylcarbonyl)-4-(3,4,5-trimethoxybenzyl)piperazine] yielded an inhibition at 30 µM [1] of 85%.
In the case of `CCOc1cc2c(cc1OCC)CCC(C(=O)N1CCN(C(=O)c3cc(OC)c(OC)c(OC)c3)CC1)=C2` [Example 65, 1-(6,7-diethoxy-1,2-dihydro-3-naphthoyl)-4-(3,4,5-trimethoxybenzoyl)piperazine], the inhibition at 30 µM [1] is reported as 100%, the inhibition in vivo at 30 mg/kg (PAF-Induced Hypotension; after 1 hr) is reported as 100% and the inhibition in vivo at 30 mg/kg (PAF-Induced Hypotension; after 2 hrs) is reported as 100%. It also gave an inhibition in vivo at 30 mg/kg (PAF-Induced Hypotension; after 4 hrs) of 77%.
`CCCOc1cc2c(cc1OCCC)CCC(C(=O)N1CCN(Cc3cc(OC)c(OC)c(OC)c3)CC1)=C2` [Example 60, 1-(6,7-dipropoxy-1,2-dihydro-3-naphthoyl)-4-(3,4,5-trimethoxybenzyl)-piperazine hydrochloride] was tested, and the inhibition at 30 µM [1] was 100%, the inhibition in vivo at 30 mg/kg (PAF-Induced Hypotension; after 1 hr) was 79% and the inhibition in vivo at 30 mg/kg (PAF-Induced Hypotension; after 2 hrs) was 69%. The inhibition in vivo at 30 mg/kg (PAF-Induced Hypotension; after 4 hrs) was 60%.
With `COc1cc2c(cc1OC)CCCCC(C(=O)N1CCN(C(=O)c3cc(OC)c(OC)c(OC)c3)CC1)=C2` [Example 85, 1-(2,3-dimethoxy-5,6,7,8-tetrahydrobenzocycloocten-9-ylcarbonyl)-4-(3,4,5-trimethoxybenzoyl)piperazine] the inhibition at 30 µM [1] was 100%, the inhibition in vivo at 30 mg/kg (PAF-Induced Hypotension; after 1 hr) was 100% and the inhibition in vivo at 30 mg/kg (PAF-Induced Hypotension; after 2 hrs) was 100%. For the same compound, the inhibition in vivo at 30 mg/kg (PAF-Induced Hypotension; after 4 hrs) was 100%.
In the case of `COc1ccc2cc(C(=O)N3CCN(Cc4cc(OC)c(OC)c(OC)c4)CC3)ccc2c1` [Example 9, 1-(6-methoxy-2-naphthoyl)-4-(3,4,5-trimethoxybenzyl)piperazine hydrochloride], the inhibition at 30 µM [1] is reported as 87%.
With `COc1cc(CN2CCN(C(=O)c3ccc4ccccc4c3)CC2)cc(OC)c1OC` [Example 7, 1-(2-naphthoyl)-4-(3,4,5-trimethoxybenzyl)piperazine hydrochloride] the inhibition at 30 µM [1] was 95%.
`COc1cc(CN2CCN(C(=O)c3cccc4ccccc34)CC2)cc(OC)c1OC` [Example 8, 1-(1-naphthoyl)-4-(3,4,5-trimethoxybenzyl)piperazine hydrochloride] was tested, and the inhibition at 30 µM [1] was 84%.
`COc1cc(CN2CCN(C(=O)C3=Cc4cc(OCc5ccccc5)c(OCc5ccccc5)cc4CC3)CC2)cc(OC)c1OC` [Example 28, 1-(6,7-dibenzyloxy-1,2-dihydro-3-naphthoyl)-4-(3,4,5-trimethoxybenzyl)piperazine hydrochloride] gave an inhibition at 30 µM [1] of 87%.
`COc1cc2c(cc1OC)CC(C(=O)N1CCN(C(=O)c3cc(OC)c(OC)c(OC)c3)CC1)CC2` (centres unmarked) [Example 79] gave an inhibition in vivo at 30 mg/kg (PAF-Induced Hypotension; after 1 hr) of 81%, an inhibition in vivo at 30 mg/kg (PAF-Induced Hypotension; after 2 hrs) of 88% and an inhibition in vivo at 30 mg/kg (PAF-Induced Hypotension; after 4 hrs) of 66%.
Work on `COc1cc(C(=O)N2CCN(C(=O)C3=Cc4ccc(OC)c(OC)c4CCC3)CC2)cc(OC)c1OC` [Example 78, 1-(3,4-dimethoxy-6,7-dihydro-5H-benzocyclohepten-8-ylcarbonyl)-4-(3,4,5-trimethoxybenzoyl)piperazine] yielded an inhibition in vivo at 30 mg/kg (PAF-Induced Hypotension; after 1 hr) of 73%, an inhibition in vivo at 30 mg/kg (PAF-Induced Hypotension; after 2 hrs) of 57% and an inhibition in vivo at 30 mg/kg (PAF-Induced Hypotension; after 4 hrs) of 26%.
In the case of `COc1cc(CN2CCN(C(=O)c3ccc4c(c3)C(=O)c3ccccc3C4=O)CC2)cc(OC)c1OC` [Example 26, 1-(2-anthraquinonylcarbonyl)-4-(3,4,5-trimethoxybenzyl)piperazine], the inhibition at 30 µM [1] is reported as 91%.
Work on `COc1cc(CN2CCN(C(=O)c3ccc4c(c3)C(O)c3ccccc3-4)CC2)cc(OC)c1OC` (centres unmarked) [Example 39, 1-(9-hydroxy-2-fluorenylcarbonyl)-4-(3,4,5-trimethoxybenzyl)piperazine hydrochloride] yielded an inhibition at 30 µM [1] of 100%, an inhibition in vivo at 30 mg/kg (PAF-Induced Hypotension; after 1 hr) of 70% and an inhibition in vivo at 30 mg/kg (PAF-Induced Hypotension; after 2 hrs) of 64%. It also gave an inhibition in vivo at 30 mg/kg (PAF-Induced Hypotension; after 4 hrs) of 47%.
`COc1cc2ccc(C(=O)N3CCN(Cc4cc(OC)c(OC)c(OC)c4)CC3)c(O)c2cc1OC` [Example 41, 1-(6,7-dimethoxy-1-hydroxy-2-naphthoyl)-4-(3,4,5-trimethoxybenzyl)piperazine hydrochloride] was tested, and the inhibition at 30 µM [1] was 97%.
In the case of `COc1cc(CN2CCN(C(=O)C3=Cc4cc(OC)c(OC)c(OC)c4CC3)CC2)cc(OC)c1OC` [Example 10, 1-(6,7,8-trimethoxy-1,2-dihydro-3-naphthoyl)-4-(3,4,5-trimethoxybenzyl)piperazine hydrochloride], the inhibition at 30 µM [1] is reported as 87%.
`CCCCOc1cc2ccc(C(=O)N3CCN(Cc4cc(OC)c(OC)c(OC)c4)CC3)cc2cc1OCCCC` [Example 23, 1-(6,7-dibutoxy-2-naphthoyl)-4-(3,4,5-trimethoxybenzyl)piperazine hydrochloride] showed an inhibition at 30 µM [1] of 100%.
Work on `COc1cc2c(cc1OC)CCCC(C(=O)N1CCN(C(=S)c3cc(OC)c(OC)c(OC)c3)CC1)=C2` [Example 76, 1-(2,3-dimethoxy-6,7-dihydro-5H-benzocyclohepten-8-ylcarbonyl)-4-(3,4,5-trimethoxythiobenzoyl)piperazine] yielded an inhibition in vivo at 3 mg/kg (PAF-Induced Hypotension; after 1 hr) of 72%, an inhibition in vivo at 3 mg/kg (PAF-Induced Hypotension; after 2 hrs) of 69% and an inhibition in vivo at 3 mg/kg (PAF-Induced Hypotension; after 4 hrs) of 60%. For the same compound, the inhibition in vivo at 30 mg/kg (PAF-Induced Hypotension; after 1 hr) was 100%, the inhibition in vivo at 30 mg/kg (PAF-Induced Hypotension; after 2 hrs) was 100% and the inhibition in vivo at 30 mg/kg (PAF-Induced Hypotension; after 4 hrs) was 100%.
`CCCCOc1ccc2cc(C(=O)N3CCN(Cc4cc(OC)c(OC)c(OC)c4)CC3)ccc2c1` [Example 17, 1-(6-butoxy-2-naphthoyl)-4(3,4,5-trimethoxybenzyl)piperazine hydrochloride] gave an inhibition at 30 µM [1] of 97%.
`CCOc1cc2c(cc1OCC)CCCC(C(=O)N1CCN(C(=O)c3cc(OC)c(OC)c(OC)c3)CC1)=C2` [Example 73, 1-(2,3-diethoxy-6,7-dihydro-5H-benzocyclohepten-8-ylcarbonyl)-4-(3,4,5-trimethoxybenzoyl)piperazine] showed an inhibition in vivo at 30 mg/kg (PAF-Induced Hypotension; after 1 hr) of 98%, an inhibition in vivo at 30 mg/kg (PAF-Induced Hypotension; after 2 hrs) of 98% and an inhibition in vivo at 30 mg/kg (PAF-Induced Hypotension; after 4 hrs) of 96%.
Work on `CCOc1c(OC)cc(C(=O)N2CCN(C(=O)C3=Cc4cc(OC)c(OC)cc4CCC3)CC2)cc1OC` [Example 75, 1-(2,3-dimethoxy-6,7-dihydro-5H-benzocyclohepten-8-ylcarbonyl)-4-(3,5-dimethoxy-4-ethoxy-benzoyl)piperazine] yielded an inhibition in vivo at 30 mg/kg (PAF-Induced Hypotension; after 1 hr) of 61%, an inhibition in vivo at 30 mg/kg (PAF-Induced Hypotension; after 2 hrs) of 54% and an inhibition in vivo at 30 mg/kg (PAF-Induced Hypotension; after 4 hrs) of 61%.
Work on `CCCCOc1ccc2c(c1)CCC(C(=O)N1CCN(Cc3cc(OC)c(OC)c(OC)c3)CC1)=C2` [Example 15, 1-(7-butoxy-1,2-dihydro-3-naphthoyl)-4-(3,4,5-trimethoxybenzyl)piperazine hydrochloride] yielded an inhibition at 30 µM [1] of 100%.
For `COc1cc2ccc(C(=O)N3CCN(Cc4cc(OC)c(OC)c(OC)c4)CC3)cc2cc1OC` [Example 21, 1-(6,7-dimethoxy-2-naphthoyl)-4-(3,4,5-trimethoxybenzyl)piperazinehydrochloride], the inhibition at 30 µM [1] was 93%.
`COc1cc2c(cc1OC)CC(C(=O)N1CCN(C(=O)c3cc(OC)c(OC)c(OC)c3)CC1)=C2` [Example 61, 1-(5,6-dimethoxy-1-H-inden-2-ylcarbonyl)-4-(3,4,5-trimethoxybenzoyl)piperazine] gave an inhibition in vivo at 30 mg/kg (PAF-Induced Hypotension; after 1 hr) of 86%, an inhibition in vivo at 30 mg/kg (PAF-Induced Hypotension; after 2 hrs) of 82% and an inhibition in vivo at 30 mg/kg (PAF-Induced Hypotension; after 4 hrs) of 74%.
Compound `COc1cc2ccccc2cc1C(=O)N1CCN(Cc2cc(OC)c(OC)c(OC)c2)CC1` [Example 24, 1-(3-methoxy-2-napththoyl)-4-(3,4,5-trimethoxybenzyl)piperazine hydrochloride] has an inhibition at 30 µM [1] of 100%.
`COc1cc(CN2CCN(C(=O)c3ccc4c(OC)c(OC)c(OC)cc4c3)CC2)cc(OC)c1OC` [Example 12, 1-(3,4,5-trimethoxybenzyl)-4-(5,6,7-trimethoxy)-2-naphthoyl)piperazine hydrochloride] showed an inhibition at 30 µM [1] of 100%.
`COc1cc(CN2CCN(C(=O)C3=Cc4ccc(OC)c(OC)c4CCC3)CC2)cc(OC)c1OC` [Example 43, 1-(3,4-dimethoxy-6,7-dihydro-5H-benzocyclohepten-8-ylcarbonyl)-4-(3,4,5-trimethoxybenzyl)piperazine hydrochloride] showed an inhibition at 30 µM [1] of 89%.
Compound `COc1cc(CN2CCN(C(=O)C3=Cc4cc(OC(C)=O)c(OC(C)=O)cc4CC3)CC2)cc(OC)c1OC` [Example 36, 1-(6,7-diacetyloxy-1,2-dihydro-3-naphthoyl)-4-(3,4,5-trimethoxybenzyl)piperazine fumarate] has an inhibition at 30 µM [1] of 86%.
